Entries after “also recorded” stand apart in the source; their conditions may differ.
Key:
[1] = system: Her2; assay: Degradation of Her2 in BT-474 cells (Method 1, Western blot); type: cell-based, Human; details: 0.5 μM, overnight
Experimental: Human high-Her2 breast carcinoma BT474 (HTB-20), SK-BR-3 (HTB-30) and MCF-7 breast carcinoma (HTB-22) from American Type Culture Collection, VA, USA were grown in Dulbecco's modified Eagle's medium with 4 mM L-glutamine and antibiotics (100 IU/ml penicillin and 100 ug/ml streptomycine;GibcoBRL). To obtain exponential cell growth, cells were trypsinized, counted and seeded at a cell density of 0.5×10^6 cells/ml regularly, every 3 days. All experiments were performed on day 1 after cell passage.
BT-474 cells are treated with 0.5 μM, 2 μM, or 5 μM of 17AAG (a positive control) or 0.5 μM, 2 μM, or 5 μM of a compound of the invention overnight in DMEM medium. After treatment, each cytoplasmic sample is prepared from 1×10^6 cells by incubation of cell lysis buffer (#9803, cell Signaling Technology) on ice for 10 minutes. The resulting supernatant used as the cytosol fractions is dissolved with sample buffer for SDS-PAGE and run on a SDS-PAGE gel, blotted onto a nitrocellulose membrane by using semi-dry transfer. Non-specific binding to nitrocellulose is blocked with 5% skim milk in TBS with 0.5% Tween at room temperature for 1 hour, then probed with anti-Her2/ErB2 mAb (rabbit IgG, #2242, Cell Signaling) and anti-Tubulin (T9026, Sigma) as housekeeping control protein. […]

[2] = system: FLT3 with Hsp90; details: cited from earlier work
[3] = system: leukemia cells that express either wild type FLT3 or FLT3-ITD mutations; details: cited from earlier work
[4] = system: Kasumi-1 cells; details: Kasumi-1 acute myeloid leukemia cell line with c-Kit mutation; cited from earlier work
[5] = system: Pkd1^−/− mice; assay: Cyst formation and kidney growth in conditional Pkd1-/- mice (MRI, kidney weight, cystic index, BUN); type: in vivo
Experimental: All experiments involving mice were approved by the Institutional Animal Care and Use Committee of Fox Chase Cancer Center. Conditional Pkd1^−/− mice using the Cre-flox regulatory system for targeted inactivation of the Pkd1 gene in vivo were kindly provided by Gregory Germino (National Institute of Diabetes and Digestive and Kidney Diseases). Pkd1fl/fl;Cre/Esr1+ (referred to as Pkd1^−/−) and control mice (Pkd1fl/fl;Cre/Esr1−; referred to as Control) mice were injected intraperitoneally with tamoxifen (250 mg/kg body weight) on postnatal day P37/P38 (+/−1 day) to induce Pkd1 deletion in the test group.
Compound 111 was formulated in 5% dextrose titrated to pH 4, and administered by tail vein injection in anesthetized mice under sterile conditions using a volume of 10 μl/g body weight. Vehicle treated mice were injected with 5% dextrose only. To investigate the activity of compound 111 on early kidney disease, mice were treated with compound 111 for 5 months, starting 2-3 days after Pkd1 deletion. Treatment began with a weekly schedule up to 4 months of age, including one week off in the 3rd month of age, followed by a bi-weekly schedule from 4 to 6 month of age. 24 hours after the 16th injection, blood samples were collected and the mice were sacrificed to collect organs for histopathological and biochemical analysis. To investigate the activity of compound 111 on Late kidney disease, mice were dosed weekly with compound 111 for 10 weeks starting at 4 months of age. 24 hours after the 11th dose (10 weeks of treatment), blood samples were collected and the mice were sacrificed to collect organs for histopathological and biochemical analysis.
To assess the utility of HSP90 inhibition in ADPKD, Pkd1fl/fl;Cre/Esr1+ (referred to as Pkd1^−/−) and control Pkd1fl/fl;Cre/Esr1− (referred to as control) mice were injected with tamoxifen at 5-6 weeks of age to inactivate the Pkd1 gene. HSP90 was inhibited using compound, a resorcinolic triazole that competitively binds the N-terminal ATP pocket of HSP90. In one cohort of mice (designated Early), mice were dosed from 6 weeks-4 months of age, to assess drug effects on disease initiation (FIG. 1). […] (FIGS. 2-3)
In a second cohort (designated Late), mice were dosed from 4-6 months of age, to assess drug effects on mice with Late cysts, in this case using doses of 50 mg/kg and 100 mg/kg to explore dose range (FIGS. 4-6).
Mice were imaged in a vertical bore MR system at a field strength of 7 Tesla, using a Bruker DRX300 spectrometer, Paravision 3.0.2 software, and a single tuned ^1H cylindrical radiofrequency coil. […]
Using NIH ImageJ, an open source image analysis program, kidney and cyst volume were quantified. […]

| Compound | degradation of Her2 [1] | association of FLT3 with Hsp90 [2] | growth of leukemia cells [3] | apoptosis [4] | blood urea nitrogen (BUN) ([5]; Early cohort, 75 mg/kg, blood drawn at euthanasia) | formation of renal cysts and kidney growth ([5]; Early cohort, Pkd1−/− mice, 75 mg/kg, tail vein injection, 5 months) | reduction of cyst volume and kidney growth ([5]; Late cohort, 50 mg/kg and 100 mg/kg, 1×/week for 10 weeks, tail vein injection) | BUN scores ([5]; Late cohort, 100 mg/kg, 10 weeks) |
| --- | --- | --- | --- | --- | --- | --- | --- | --- |
| C=CCNC1=C2C[C@@H](C)C[C@H](OC)[C@H](O)[C@@H](C)/C=C(\C)[C@H](OC(N)=O)[C@@H](OC)/C=C\C=C(/C)C(=O)NC(=CC1=O)C2=O [Compound 17AAG] | partial degradation | disrupt the association of FLT3 with Hsp90 | inhibited | induce apoptosis |  |  |  |  |
| CC(C)c1cc(-c2nnc(C(=O)NCCN3CCOCC3)n2-c2ccc(CN3CCOCC3)cc2)c(O)cc1O [Compound 111, 5-(2,4-dihydroxy-5-isopropylphenyl)-N-(2-morpholinoethyl)-4-(4-(morpholinomethyl)phenyl)-4H-1,2,4-triazole-3-carboxamide] |  |  |  |  | trend towards reduction | very significantly reduced; also recorded: inhibited cyst formation, kidney growth | significant, dose-dependent effect; also recorded: reduced cystic burden | reduced BUN scores to normal levels |

Reference: patent US20150283147A1, “TREATING POLYCYSTIC KIDNEY DISEASE WITH HSP90 INHIBITORY COMPOUNDS” (SYNTA PHARMACEUTICALS CORP., priority 2012, published 2015)
